Measurements published in patent publication US5723491A, “Fungicidal composition and method of controlling fungus infestation” (Novartis Corporation, priority 1994, dated 1998).
Several values for one entry are separate records, joined by “and”; a condition that tells them apart may be missing. Identical values can stand only once. Like-named read-outs stand apart in the source and are kept apart here.

Assays:
[1] = Degradation behaviour in moderately heavy soil (silt/loam) under laboratory conditions
Experimental: Degradation Behaviour of Racemic Metalaxyl and R-metalaxyl in Moderately Heavy Soil
Two groups of 8 samples each of biologically active soil (silt/loam; loam: 13.9%; silt: 54.3%; sand: 31.8%; organic carbon: 2.1%; pH 7.3; biomass: 65.1 mg microbial carbon per 100 g soil; origin: Les Evouettes, Valais, Switzerland) are treated in parallel with racemic metalaxyl or R-metalaxyl, respectively, in each case in acetonic solution. The rate of application is 0.5 mg/kg of soil sample, which corresponds to a rate of application of 0.5 kg/hectare. The results are evaluated in duplicate after 0, 7, 14 and 21 days.

[2] = 20° C., cited from earlier work
[3] = system: metalaxyl-sensitive strain of Plasmopara viticola; test: Foliar spray on vine plantlets infected with Plasmopara viticola (two-leaf and three-leaf stage sprayings); assay type: in vivo
Experimental: Vine plantlets cv. "Gutedel" are grown under greenhouse conditions using one plant per pot (.O slashed.=6 cm) and sprayed with a spray broth prepared from an emulsion concentrate, either in the two-leaf stage or in the three-leaf stage. The following concentrations of active ingredient are used per batch of 4 plants: 200; 60; 20; 6; 2; 0.6; 0.2; 0.06 mg of a.i./liter. This dilution series is prepared in demineralized water immediately prior to application as a foliar spray. To exclude a gas-phase effect of the a.i. in the vicinity, all plants are separated from each other on the side using translucent plastic foils and kept in the dark for one day at 20°-22° C. and a relative humidity of approximately 100%.
Then, the entire leaf surface area of the plants is uniformly sprayed to drip point with a freshly prepared sporangia suspension (120 000/ml) of a metalaxyl-sensitive strain of Plasmopara viticola. The plants are then kept for 7 days under a 16 hour photoperiod with artificial daylight at 20°-22° C. and a relative humidity of approximately 100%. This is followed by evaluation of the infestation, separating three-leaf and two-leaf stage sprayings. The tables show in each case the average of 4 parallel sprayings.

[4] = Degradation behaviour in sandy soil under laboratory conditions; design: degradation equation Ct, rate constant in exponent: unit: 1/day; conditions: sand
Experimental: Degradation Behaviour of Racemic Metalaxyl and R-metalaxyl in Sandy Soil
Two groups of 16 samples each of biologically active soil (sandy soil; loam: 5.1%; silt: 11.4%; sand: 83.5%; organic carbon: 1.6%; pH 4; biomass: 51 mg microbial carbon/100 g soil; origin: Collombey, Valais, Switzerland)are treated in parallel with racemic metalaxyl or R-metalaxyl, respectively, in each case in acetonic solution. The rate of application is 0.5 mg/kg of soil sample, which corresponds to a rate of application of 0.5 kg/hectare. The results are evaluated in duplicate after 0, 1, 3, 7, 9, 15, 21 and 29 days.

[5] = system: Phytophthora palmivora; conditions: S-enantiomer versus R-enantiomer of metalaxyl; cited from earlier work
[6] = day 7, mean of duplicate, 10080 min
[7] = day 7, single sample, 10080 min
[8] = day 21, mean of duplicate, 30240 min
[9] = day 21, single sample, 30240 min

In the case of `COCC(=O)N(c1c(C)cccc1C)C(C)C(=O)OC` (racemic) [racemic metalaxyl, N-(2,6-dimethylphenyl)-N-(methoxyacetyl)-DL-alanine methyl ester], the “Compound remaining in soil (% of applied)” value ([1]; day 0, mean of duplicate) is reported as 90.39 % of applied, the “Compound remaining in soil (% of applied)” value ([1]; day 0, single sample) is reported as 90.41 % of applied and 90.36 % of applied and the “Compound remaining in soil (% of applied)” value [1, 6] is reported as 46.23 % of applied. For the same compound, the “Compound remaining in soil (% of applied)” value [1, 7] was 47.28 % of applied and 45.17 % of applied, the “Compound remaining in soil (% of applied)” value ([1]; day 14, mean of duplicate, 20160 min) was 35.71 % of applied and the “Compound remaining in soil (% of applied)” value ([1]; day 14, single sample, 20160 min) was 35.88 % of applied and 35.54 % of applied. For the same compound, the “Compound remaining in soil (% of applied)” value [1, 8] was 29.20 % of applied, the “Compound remaining in soil (% of applied)” value [1, 9] was 29.34 % of applied and 29.06 % of applied and the “degradation equation Ct, pre-exponential factor” value ([1]; first-order fit) was 86.66. The “DT-50 (50% degradation)” value ([1]; from degradation curve FIG. 1) was 10.8 days, the “DT-90 (90% degradation)” value ([1]; from degradation curve FIG. 1) was 35.7 days and the “DT-50 (hydrolytic half-life)” value ([2]; pH1) was over 200 days. For the same compound, the “DT-50 (hydrolytic half-life)” value ([2]; pH9) was 115 days, the Foliar infestation ([3]; three-leaf stage, 0.06 mg of a.i./liter, untreated control 92) was 92% and the Foliar infestation ([3]; three-leaf stage, 0.2 mg of a.i./liter, untreated control 92) was 90%. For the same compound, the Foliar infestation ([3]; three-leaf stage, 0.6 mg of a.i./liter, untreated control 92) was 96%, the Foliar infestation ([3]; three-leaf stage, 2 mg of a.i./liter, untreated control 92) was 80% and the “activity” value ([3]; three-leaf stage, 6 mg of a.i./liter (or less)) was “virtually no activity”. For the same compound, the Foliar infestation ([3]; three-leaf stage, 6 mg of a.i./liter, untreated control 92) was 85%, the Foliar infestation ([3]; three-leaf stage, 20 mg of a.i./liter, untreated control 92) was 27% and the “activity” value ([3]; three-leaf stage, 20 mg/liter) was “a more clear-cut activity is only discernible”. The Foliar infestation ([3]; three-leaf stage, 60 mg of a.i./liter, untreated control 92) was 0%, the Foliar infestation ([3]; three-leaf stage, 200 mg of a.i./liter, untreated control 92) was 0% and the Foliar infestation ([3]; two-leaf stage, 0.06 mg of a.i./liter, untreated control 96) was 96%. For the same compound, the Foliar infestation ([3]; two-leaf stage, 0.2 mg of a.i./liter, untreated control 96) was 97%, the Foliar infestation ([3]; two-leaf stage, 0.6 mg of a.i./liter, untreated control 96) was 100% and the Foliar infestation ([3]; two-leaf stage, 2 mg of a.i./liter, untreated control 96) was 87%. The Foliar infestation ([3]; two-leaf stage, 6 mg of a.i./liter, untreated control 96) was 76%, the Foliar infestation ([3]; two-leaf stage, 20 mg of a.i./liter, untreated control 96) was 38% and the Foliar infestation ([3]; two-leaf stage, 60 mg of a.i./liter, untreated control 96) was 0%. The Foliar infestation ([3]; two-leaf stage, 200 mg of a.i./liter, untreated control 96) was 0%, the “effect for practical purposes” value ([3]; two-leaf stage, below 20 mg of a.i./liter) was “without effect for practical purposes” and the “action against foliar infestation” value ([3]; two-leaf stage, below 60 mg of a.i./liter) was “does not result in a clear-cut action against foliar infestation”. The “Rate of degradation (% of applied), mean” value ([4]; day 0, mean of duplicate) was 97.78 % of applied, the “Rate of degradation (% of applied)” value ([4]; day 0, single sample) was 98.00 % of applied and 97.56 % of applied and the “Rate of degradation (% of applied), mean” value ([4]; day 1, mean of duplicate, 1440 min) was 87.82 % of applied. The “Rate of degradation (% of applied)” value ([4]; day 1, single sample, 1440 min) was 87.75 % of applied and 87.88 % of applied, the “Rate of degradation (% of applied), mean” value ([4]; day 3, mean of duplicate, 4320 min) was 80.01 % of applied and the “Rate of degradation (% of applied)” value ([4]; day 3, single sample, 4320 min) was 80.32 % of applied and 79.69 % of applied. For the same compound, the “Rate of degradation (% of applied), mean” value [4, 6] was 65.01 % of applied, the “Rate of degradation (% of applied)” value [4, 7] was 65.41 % of applied and 64.60 % of applied and the “Rate of degradation (% of applied), mean” value ([4]; day 9, mean of duplicate, 12960 min) was 56.26 % of applied. The “Rate of degradation (% of applied)” value ([4]; day 9, single sample, 12960 min) was 55.84 % of applied and 56.68 % of applied, the “Rate of degradation (% of applied), mean” value ([4]; day 15, mean of duplicate, 21600 min) was 42.54 % of applied and the “Rate of degradation (% of applied)” value ([4]; day 15, single sample, 21600 min) was 43.49 % of applied and 41.58 % of applied. For the same compound, the “Rate of degradation (% of applied), mean” value [4, 8] was 31.99 % of applied, the “Rate of degradation (% of applied)” value [4, 9] was 30.77 % of applied and 33.21 % of applied and the “Rate of degradation (% of applied), mean” value ([4]; day 29, mean of duplicate, 41760 min) was 28.49 % of applied. For the same compound, the “Rate of degradation (% of applied)” value ([4]; day 29, single sample, 41760 min) was 28.70 % of applied and 28.28 % of applied, the “degradation equation Ct, pre-exponential factor” value ([4]; first-order fit) was 93.67 and the “degradation equation Ct, rate constant in exponent” value ([4]; first-order fit, e^(-k*t)) was 0.05006. For the same compound, the “DT-50 (50% degradation)” value ([4]; from degradation curve FIG. 2) was 13.9 days and the “DT-90 (90% degradation)” value ([4]; from degradation curve FIG. 2) was 46.0 days.

For `COCC(=O)N(c1c(C)cccc1C)[C@@H](C)C(=O)OC` [S-enantiomer of metalaxyl], the “ED50 inhibitory value in nucleic acid synthesis relative to R-enantiomer (times more unfavorable)” value [5] is given as “approximately fifty”.
